The target of the test is T1, ΔF508-CFTR (Homo sapiens, UniProt P13569, DEL508-508).
T1 construct: Primary lung epithelial cells homozygous for the Cystic Fibrosis-causing ΔF508 mutation were differentiated for a minimum of 4 weeks; endogenous in cells; host or cells: primary lung epithelial cells (hBE) homozygous for ΔF508, differentiated at an air-liquid interface
T1 sequence (P13569 with tags, fused parts or gaps DEL508-508): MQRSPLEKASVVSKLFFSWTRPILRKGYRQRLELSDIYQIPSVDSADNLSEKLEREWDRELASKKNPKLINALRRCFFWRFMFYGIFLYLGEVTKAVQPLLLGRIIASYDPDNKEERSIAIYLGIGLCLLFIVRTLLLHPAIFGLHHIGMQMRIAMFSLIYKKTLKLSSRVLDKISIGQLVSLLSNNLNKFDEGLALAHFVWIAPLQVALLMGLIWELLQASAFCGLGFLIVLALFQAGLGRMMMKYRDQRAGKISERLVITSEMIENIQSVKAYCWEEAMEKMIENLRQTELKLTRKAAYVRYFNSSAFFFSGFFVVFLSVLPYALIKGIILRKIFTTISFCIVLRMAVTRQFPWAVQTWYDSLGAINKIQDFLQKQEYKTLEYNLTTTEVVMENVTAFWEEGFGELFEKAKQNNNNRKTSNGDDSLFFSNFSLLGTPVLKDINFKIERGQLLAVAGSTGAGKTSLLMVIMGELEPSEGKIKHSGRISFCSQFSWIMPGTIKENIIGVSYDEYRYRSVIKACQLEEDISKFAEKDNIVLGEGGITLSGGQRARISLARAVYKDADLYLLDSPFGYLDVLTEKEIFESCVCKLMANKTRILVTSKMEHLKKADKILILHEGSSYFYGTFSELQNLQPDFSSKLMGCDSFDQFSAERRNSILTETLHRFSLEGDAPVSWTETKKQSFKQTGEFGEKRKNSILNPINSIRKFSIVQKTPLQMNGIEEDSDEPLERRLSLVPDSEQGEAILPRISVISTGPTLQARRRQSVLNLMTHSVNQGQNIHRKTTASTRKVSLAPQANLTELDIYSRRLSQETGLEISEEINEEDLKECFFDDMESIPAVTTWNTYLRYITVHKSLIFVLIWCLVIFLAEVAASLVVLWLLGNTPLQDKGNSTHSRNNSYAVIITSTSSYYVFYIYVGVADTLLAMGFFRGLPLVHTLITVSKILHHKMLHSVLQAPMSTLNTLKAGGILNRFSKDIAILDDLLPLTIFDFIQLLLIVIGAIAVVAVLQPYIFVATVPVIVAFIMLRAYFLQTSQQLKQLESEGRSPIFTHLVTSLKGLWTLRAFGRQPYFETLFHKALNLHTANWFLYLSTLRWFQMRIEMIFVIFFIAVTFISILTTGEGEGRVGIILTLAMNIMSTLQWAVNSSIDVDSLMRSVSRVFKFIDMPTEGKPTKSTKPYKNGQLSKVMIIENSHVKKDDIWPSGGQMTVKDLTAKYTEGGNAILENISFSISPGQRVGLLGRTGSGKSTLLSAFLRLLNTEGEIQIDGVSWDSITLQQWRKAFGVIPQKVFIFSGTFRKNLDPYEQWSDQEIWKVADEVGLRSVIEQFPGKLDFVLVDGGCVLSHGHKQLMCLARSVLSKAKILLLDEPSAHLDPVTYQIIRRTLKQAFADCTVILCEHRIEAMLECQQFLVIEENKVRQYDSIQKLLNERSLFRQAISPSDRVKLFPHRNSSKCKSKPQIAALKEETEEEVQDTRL
Briefly: hBE equivalent current (Ieq) assay: AUC of equivalent chloride current after forskolin/VX-770 in primary lung epithelial cells homozygous for ΔF508. Format: cell-based. As to conditions: relative to CFTR amplifier (Compound A)+VX-809 (3 uM), compound at 10 uM and Compound A at 3 uM, 24 h treatment. An outline of the steps: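 Readout is the increase over vehicle in equivalent chloride current AUC from forskolin/VX-770 addition to bumetanide, measured by current clamp at 36 °C after benzamil block of ENaC. Cultures were homozygous ΔF508 primary lung epithelium grown ≥4 weeks at air-liquid interface and exposed basolaterally to compound for 24 h.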
With `Cc1c(-c2cc(C(=O)[O-])c3c(O[C@H]4C[C@H](C)C[C@H](C)C4)ccc(C)c3n2)sc2ccccc12.[Na+]` [Compound 314], the Activity result was “++ (activity>50% of CFTR amplifier+VX-809 (3 uM) with compound at 10 uM and Compound A at 3 uM)”. As for `CCc1ccc(O[C@@H]2CCC[C@@H](C)C2)c2c(C(=O)[O-])cc(-c3sc4ccccc4c3C)nc12.[Na+]` [Compound 217, Sodium 8-Ethyl-2-(3-methyl-1-benzothiophen-2-yl)-5-[[(1R,3R)-3-methylcyclohexyl]oxy]quinoline-4-carboxylate], the entry is “++ (activity>50% of CFTR amplifier+VX-809 (3 uM) with compound at 10 uM and Compound A at 3 uM)”; as for `CCc1ccc(OCc2ccccc2)c2c(C(=O)O)cc(-c3coc4ccccc34)nc12` [Compound 169, 2-(1-Benzofuran-3-yl)-5-(benzyloxy)-8-ethylquinoline-4-carboxylic acid], “++ (activity>50% of CFTR amplifier+VX-809 (3 uM) with compound at 10 uM and Compound A at 3 uM)”. For `Cc1c(-c2cc(C(=O)[O-])c3c(O[C@H]4C[C@H](C5CCOCC5)C4)ccc(C)c3n2)oc2ccccc12.[Na+]` [Compound 350], the Activity entry is “++ (activity>50% of CFTR amplifier+VX-809 (3 uM) with compound at 10 uM and Compound A at 3 uM)”. To `Cc1c(-c2cc(C(=O)[O-])c3c(OCc4ccc5c(c4)OCO5)ccc(C)c3n2)sc2ccccc12.[Na+]` [Compound 295, Sodium 5-(2H-1,3-Benzodioxol-5-ylmethoxy)-8-methyl-2-(3-methyl-1-benzothiophen-2-yl)quinoline-4-carboxylate] belongs “++ (activity>50% of CFTR amplifier+VX-809 (3 uM) with compound at 10 uM and Compound A at 3 uM)”; to `Cc1c(-c2cc(C(=O)[O-])c3c(OCc4cccc(C#N)c4)ccc(C)c3n2)sc2ccccc12.[Na+]` [Compound 298, Sodium 5-[(3-Cyanophenyl)methoxy]-8-methyl-2-(3-methyl-1-benzothiophen-2-yl)quinoline-4-carboxylate], “++ (activity>50% of CFTR amplifier+VX-809 (3 uM) with compound at 10 uM and Compound A at 3 uM)”; to `Cc1ccc(OCc2ccccc2)c2c(C(=O)O)cc(-c3cc4ccccc4o3)nc12` [Compound 15, 2-(1-Benzofuran-2-yl)-5-(benzyloxy)-8-methylquinoline-4-carboxylic acid], “++ (activity>50% of CFTR amplifier+VX-809 (3 uM) with compound at 10 uM and Compound A at 3 uM)”.

Regarding `Cc1oc2ccccc2c1-c1cc(C(=O)O)c2c(OCc3ccccc3)ccc(C)c2n1` [Compound 35, 5-(Benzyloxy)-8-methyl-2-(2-methyl-1-benzofuran-3-yl)quinoline-4-carboxylic acid], the Activity result is “++ (activity>50% of CFTR amplifier+VX-809 (3 uM) with compound at 10 uM and Compound A at 3 uM)”. To `CCc1ccc(O[C@H](C)c2ccccc2)c2c(C(=O)O)cc(-c3csc4ccccc34)nc12` [Compound 165] belongs “++ (activity>50% of CFTR amplifier+VX-809 (3 uM) with compound at 10 uM and Compound A at 3 uM)”. To `Cc1ccc(C)c2c(C(=O)O)cc(-c3oc4ccccc4c3Br)nc12` [Compound 39, 2-(3-Bromo-1-benzofuran-2-yl)-5,8-dimethylquinoline-4-carboxylic acid] belongs “+ (activity<50% of an CFTR amplifier (Compound A)+VX-809 (3 uM) with compound at 10 uM and Compound A at 3 uM)”; to `Cc1c(-c2cc(C(=O)[O-])c3c(O[C@@H](C)c4ccc(C#N)cc4)ccc(C)c3n2)oc2ccccc12.[Na+]` [Compound 234], “++ (activity>50% of CFTR amplifier+VX-809 (3 uM) with compound at 10 uM and Compound A at 3 uM)”. As for `Cc1c(-c2cc(C(=O)[O-])c3c(OCC4COC4)ccc(C)c3n2)sc2ccccc12.[Na+]` [Compound 346], the entry is “++ (activity>50% of CFTR amplifier+VX-809 (3 uM) with compound at 10 uM and Compound A at 3 uM)”; as for `Cc1c(-c2cc(C(=O)[O-])c3c(O[C@H](C)c4ccc(C5COC5)cc4)ccc(C)c3n2)oc2ccccc12.[Na+]` [Compound 285, Sodium 8-Methyl-2-(3-methyl-1-benzofuran-2-yl)-5-[(1R)-1-[4-(oxetan-3-yl)phenyl]ethoxy]quinoline-4-carboxylate], “++ (activity>50% of CFTR amplifier+VX-809 (3 uM) with compound at 10 uM and Compound A at 3 uM)”. As to `Cc1cc(C)c2nc(-c3sc4ccccc4c3C)cc(C(=O)O)c2c1` [Compound 18, 6,8-Dimethyl-2-(3-methylbenzo[b]thiophen-2-yl)quinoline-4-carboxylic acid], the Activity result was “+ (activity<50% of an CFTR amplifier (Compound A)+VX-809 (3 uM) with compound at 10 uM and Compound A at 3 uM)”. To `Cc1c(-c2cc(C(=O)[O-])c3c(OCc4ccc(S(C)(=O)=O)cc4)ccc(C)c3n2)oc2ccccc12.[Na+]` [Compound 263] belongs “++ (activity>50% of CFTR amplifier+VX-809 (3 uM) with compound at 10 uM and Compound A at 3 uM)”; to `Cc1c(-c2cc(C(=O)[O-])c3c(O[C@H](C)c4ccc(OC(F)F)cc4)ccc(C)c3n2)oc2ccccc12.[Na+]` [Compound 235], “++ (activity>50% of CFTR amplifier+VX-809 (3 uM) with compound at 10 uM and Compound A at 3 uM)”. In the case of `CCc1ccc(O[C@H]2CCC[C@@H](C)C2)c2c(C(=O)O)cc(-c3csc4ccccc34)nc12` [Compound 181, 2-(1-Benzothiophen-3-yl)-8-ethyl-5-[[(1S,3R)-3-methylcyclohexyl]oxy]quinoline-4-carboxylic Acid], the Activity result was “++ (activity>50% of CFTR amplifier+VX-809 (3 uM) with compound at 10 uM and Compound A at 3 uM)”.

`CO[C@]1(C)CC[C@H](COc2ccc(C)c3nc(-c4sc5ccccc5c4C)cc(C(=O)[O-])c23)CC1.[Na+]` [Compound 326]: the Activity entry is “++ (activity>50% of CFTR amplifier+VX-809 (3 uM) with compound at 10 uM and Compound A at 3 uM)”. As for `CCc1ccc(OCc2ccccc2)c2c(C(=O)O)cc(-c3c(C)c4ccccc4n3C)nc12` [Compound 147, 5-(Benzyloxy)-2-(1,3-dimethyl-1H-indol-2-yl)-8-ethylquinoline-4-carboxylic acid], the entry is “+ (activity<50% of an CFTR amplifier (Compound A)+VX-809 (3 uM) with compound at 10 uM and Compound A at 3 uM)”. For the compound `Cc1c(-c2cc(C(=O)O)c3c(OC4CC(c5ccccc5)C4)ccc(C)c3n2)oc2ccccc12` (centres unmarked) [Compound 75, 8-Methyl-2-(3-methyl-1-benzofuran-2-yl)-5-(3-phenylcyclobutoxy)quinoline-4-carboxylic acid], the Activity entry was “++ (activity>50% of CFTR amplifier+VX-809 (3 uM) with compound at 10 uM and Compound A at 3 uM)”. To `Cc1cc(Cl)cc2c(C(=O)O)cc(-c3cc4ccccc4s3)nc12` [Compound 1] belongs “+ (activity<50% of an CFTR amplifier (Compound A)+VX-809 (3 uM) with compound at 10 uM and Compound A at 3 uM)”. To `Cc1cc(C)c2nc(-c3csc4ccccc34)cc(C(=O)O)c2c1` [Compound 8, 2-(1-Benzothiophen-3-yl)-6,8-dimethylquinoline-4-carboxylic acid] belongs “+ (activity<50% of an CFTR amplifier (Compound A)+VX-809 (3 uM) with compound at 10 uM and Compound A at 3 uM)”.

Regarding `Cc1c(-c2cc(C(=O)[O-])c3c(OCC4CCC4)ccc(C)c3n2)sc2ccccc12.[Na+]` [Compound 319], the Activity result was “++ (activity>50% of CFTR amplifier+VX-809 (3 uM) with compound at 10 uM and Compound A at 3 uM)”.

The values are drawn from patent US11136313B2, “Compounds, compositions, and methods for modulating CFTR” (Proteostasis Therapeutics, Inc., priority 2015, dated 2021).
